The test system of test [1] is human sperm. The test is described as follows: Flow cytometric quantitation of sperm acrosome reaction (anti-CD46 mAb binding). As to conditions: tested at 100 μM, 3 hours, 37° C., mean of two experiments. The class given is cell-based. On the procedure: In experiments designed to assess the comparative effects of oxovanadium (IV) complexes and N-9 on sperm acrosome reaction, motile fractions of sperm (10^7/ml) prepared from a single donor were incubated in 1 ml of BWW−0.3% BSA in the presence of 100 μM each of the vanadocene complexes, VO(phen), VO(phen)2, VO(Me2—phen), VO(Me2—phen)2, VO(Cl—phen), VO(Cl—phen)2, VO(bipy), VO(bipy)2, VO(Me2—bipy), VO(Me2—bipy)2, and VO(Br,OH—acph)2 in 0.1% DMSO, N-9, or DMSO (0.1%) alone at 37° C. After 3 hours, 5 μg/ml of purified, phycoerythrin (PE)-conjugated murine anti-CD46 monoclonal antibody (mAb; clone 122-2; Research Diagnostics, Flanders, N.J.) was added and the sperm suspensions incubated for an additional 30 minutes. The suspensions was washed in Tyrode's salt solution (Sigma) containing 1% BSA (1% TBSA) and the percentage of CD46-positive sperm were analyzed by flow cytometry using a FACS Vantage flow cytometer (Becton Dickinson, Mountain View, Calif.), as described previously (DeCruz et al., 1996, Biol Reprod. 54:1217-1228; DeCruz et al., 1992, Fertil. Seril., 58:633-636). Two separate experiments were performed to quantitate acrosomal loss following exposure of sperm to oxovanadium (IV) complexes.
A general note: Flow cytometry measures light scatter and fluorescence of single cells or particles in a stream.

The test system of test [2] is human sperm. As to the kind of experiment: Sperm immobilization assay (SIA), motility by CASA. The test is classed as cell-based. Particulars: read-out: EC50 (concentration that decreases the proportion of motile sperm by 50%); 3 hours incubation at 37° C., BWW-0.3% BSA, serial 2-fold dilutions 250 μM to 1.9 μM, mean of two experiments. On the procedure: To evaluate the spermicidal effects of complexes of oxovanadium (IV), VO(phen), VO(phen)2, VO(Me2—phen), VO(Me2—phen)2, VO(Cl—phen), VO(Cl—phen)2], VO(bipy), VO(bipy)2, VO(Me2—bipy), VO(Me2—bipy)2, and VO(Br,OH—acph)2, a highly motile fraction of pooled donor sperm (N=5) was prepared by discontinuous (90−45%). Percoll gradient (Conception Technologies, San Diego, Calif.) centrifugation and the “swim-up” method as described previously (Aitken et al., 1989, Biol. Reprod. 40:183-197). All donor specimens were obtained after informed consent and in compliance with the guidelines of the Hughes Institutional Review Board. Motile sperm (≳10×10^6/ml) were suspended in 1 ml of Biggers, Whitten, and Whittingham's medium (BWW) containing 0.3% BSA (fraction V; Sigma Chemical Co., St. Louis, Mo.) in the presence and absence of serial 2-fold dilutions of test substance (250 μM−1.9 μM) in 0.25% dimethyl sulfoxide (DMSO). For each experiment, fresh stock solutions (100 mM) of vanadium compounds were prepared in DMSO. A corresponding volume of DMSO (0.25%) was added to control sperm suspension. After 3 hours of incubation at 37° C., the percentage of motile sperm was evaluated by computer-assisted sperm motion analysis (CASA) as described previously (Aitken et al., 1989, Supra). The percentages of motilities were compared with those of sham-treated control suspensions of motile sperm.
For CASA, 4 μl each of sperm suspension was loaded into two 20 μm Microcell chambers placed onto a counting chamber at 37° C. At least 5-8 fields per chamber were scanned for analysis using a Hamilton Thorne Integrated Visual Optical System (IVOS) version 10 instrument (Hamilton Thorne Research Inc., Danvers, Mass.). Each field was recorded for 30 seconds. The Hamilton Thorne computer calibrations were set at 30 frames at a frame rate of 30 images/seconds. Other settings were as follows: minimum contrast 8; minimum size 6; low-size gate, 1.0; high-size gate,2.9; low-intensity gate, 0.6; high-intensity gate, 1.4; phase-contrast illumination; low path velocity at 10 μm/seconds and threshold straightness at 80%; magnification factor, 1.95. The performance of the analyzer was periodically checked using the playback function.
Results for the various numerical sperm functional parameters are presented as mean±standard deviation (SD) values. Comparison between oxovanadium (IV) complex-treated and control sperm relative to sperm motility parameters and apoptosis were performed using paired, two-tailed Student's T-test. A p value of <0.05 was considered significant.

nonoxynol-9 [N-9, reference compound]: in test [1], the “Anti-CD46 positive sperm (%)” value was found to be 86%. The EC50 in test [2] was determined as 78.5 µM.

The values above are taken from patent US6337348B1, “Oxy-vanadium (iv) complexes having spermicidal activity” (Parker Hughes Institute, priority 1998, dated 2002).
